Results published in patent publication US20250115565A1, “SOLID CRYSTALLINE FORMS OF HELICASE-PRIMASE INHIBITORS AND PROCESS OF PREPARATION THEREOF” (INNOVATIVE MOLECULES GMBH, priority 2022, published 2025).
Structures can show the parent of a compound that is named as a salt.

Experiments:
[1] = Relative bioavailability of crystalline and salt forms after single oral dose in male mice (Example 6); format: in vivo; conditions: male C57bl/6 mice, single oral dose adjusted to 10 mg/kg free IM-250, suspension in 0.5% HPMC in PBS, blood
Method: The relative bioavailability of crystalline and different salt forms versus suspended IM-250 (derived from a DMSO stock solution) after single dose oral administration in male C57bl/6 mice was examined. Animals (3 per group) had food withdrawn approximately 2 h before administration. The suspension was prepared from a DMSO stock solution, which was diluted 1:20 with 0.5% HPMC in PBS, ultrasonificated and orally administered with a gavage volume of 5 mL/kg. The suspensions of crystalline and different salt forms were prepared directly by adding powder to 0.5% HPMC in PBS, ultrasonificated and orally administered with a gavage volume of 5 mL/kg. Blood samples were taken at 0.5 h, 1 h, 2 h, 5 h, 12 h and 24 h via capillary microsampling and bioanalytics was measured via non-chiral LC-MS. The area-under-curve (AUC0-24 h) and relative bioavailability towards the IM-250 suspension was calculated. The doses for the salts were adjusted to 10 mg/kg free IM-250.

[2] = ICH long term and accelerated stability testing (Example 8); format: physicochemical
Method: The long term and accelerated chemical and physical stability was assessed at a Contract Manufacturing Organization. IM-250 HCl salt samples were primary packaged in double PE bags (50 μm, Semadeni, e.g. cat. #2439 with each tag tied with plastic twist). The secondary package was a HDPE-drum closed with a HDPE screw cap (CurTec). The storage conditions were 25±2° C./60±5% relative humidity and 40±2° C./75±5% relative humidity.

[3] = Relative bioavailability and brain exposure of d3-IM-250 HCl salt versus IM-250 HCl salt in male mice (Example 12); format: in vivo; conditions: mouse, male C57bl/6 mice, single oral dose 10 mg/kg; for Kp at 24 h: brain and whole blood, 24 h post dose, read-out: blood/brain ratio; for AUC(0-t): read-out: AUC0-24; for Cmax: suspension in 0.5% HPMC in PBS; for concentration at 24 h: brain 24 h post dose after PBS perfusion, read-out: brain level @ 24 h
Method: Animals (3 per group) had food withdrawn approximately 2 h before administration of 10 mg/kg of the test items. The suspensions were prepared directly by adding powder to 0.5% HPMC in PBS, ultrasonificated and orally administered with a gavage volume of 5 mL/kg. Blood samples (20 μL) were taken at 0.5 h, 1 h, 2 h, 5 h, 12 h and 24 h via capillary microsampling, collected from the tail vein into Li-heparin tubes. The samples were frozen on dry ice within 1-2 min of sampling and stored at −20° C. until LC-MS/MS analysis measured via non-chiral LC-MS. After 24 h post dose, animals were sacrificed and perfused with PBS until PBS was transparent and brain was collected and stored at −20° C. until processed for LC-MS analysis to determine the brain/blood exposure. The peak blood concentration (Cmax), elimination half-life (t1/2), area-under-curve (AUC0-24 h) and blood/brain ratio (as an easily obtainable surrogate parameter for nerve tissue exposure) was determined.

[4] = Chemical accelerated stability by HPLC after temperature and humidity stress (Example 7); format: physicochemical; conditions: for % of unchanged compound left: HPLC UV 285 nm, 3 assays
Method: (§1) The chemical and physical accelerated stability of the crystalline material was studied in order to anticipate potential stability issues upon storage or ageing. Crystals were stored for 1 month at 40° C./75% relative humidity (RH) and were also stored for 1 month at 60° C. (and % HR<10% RH). The chemical stability was assessed by HPLC by external standardization versus a freshly prepared (non-stressed) standard solution. For that purpose, six samples (exactly weighted) are stored for each condition: 3 for the 2-weeks stability and 3 for the 4-weeks stability. The physical stability was also assessed by XRPD, DSC analyses by comparing the XRPD and DSC profiles of stressed samples to those of a non-stressed sample. For that purpose, two more samples (one per time point) are stored in each condition (respectively 40° C./75% RH and 60° C.).

[5] = Physical accelerated stability by XRPD and DSC after temperature and humidity stress (Example 7); format: physicochemical
Method: XRPD analysis was performed on a Bruker D2 Phase diffractometer using a copper anti-cathode, a mono-crystalline silicone sample holder and a position sensitive detector (LynxExe). Powder sample was loaded on a flat mono-crystalline silicone sample holder in a way to avoid preferred orientation and to sensure planarity of the speciem surface. Instrument operation conditions were as follows: ambient temperature and atmosphere; X-ray generator voltage 30 kV and intensity 10 mA; X-ray source: target Copper; emission radiation Kα1=0.15406 nm, Kα2=0.15444 nm, ratio Kα2/Kα1=0.5, KB filter radiation Nickel; Slit: anti-divergence […], Sollers slit 2.5°; Goniometer: angular sector analyzed from 4° to 45° or 4° to 50° for 20, step size 0.07° for 20; Sample holder rotation speed: 30 rpm; Detection: exposition time per step size of goniometer 1 s.
DSC analysis was performed on a Q1000 TA Instruments analyzer. The sample to be analyzed was weighed in an aluminium capsule, which was then crimped and put into the calorimeter oven. Instrument operation conditions were as follows: heater ramp 10° C./min; final temperature 230° C. or 240° C.; carrier gas: nitrogen (Messer “qualité Azote 5.0”) with flow rate of 50 mL/min.
as §1

[6] = at least 4 weeks after storage at 40° C./75% RH and at 60° C.

SMILES: Cc1nc(N(C)C(=O)Cc2ccc(-c3cc(F)ccc3F)cc2)sc1[S@@](C)(=N)=O [IM-250 HCl salt]
- AUC0-24 h [1]: 68289 ng·h/mL
- Assay (HPLC, % w/w, as-is) ([2]; 6 months 25° C./60% RH): 97.9%
- Chiral purity (HPLC area %) ([2]; 6 months 25° C./60% RH): 99.9%
- Color and apperance ([2]; 6 months 25° C./60% RH): white to off-
- Purity (HPLC area %) ([2]; 6 months 25° C./60% RH): 99.2%
- Water content (% w/w) ([2]; 6 months 25° C./60% RH): 0.08%
- Assay (HPLC, % w/w, as-is) ([2]; 6 months 40° C./75% RH): 98.6%
- Chiral purity (HPLC area %) ([2]; 6 months 40° C./75% RH): 99.9%
- Color and apperance ([2]; 6 months 40° C./75% RH): white to off-
- Identity by XRPD ([2]; 6 months 40° C./75% RH): conforms to
- Purity (HPLC area %) ([2]; 6 months 40° C./75% RH): 99.1%
- Water content (% w/w) ([2]; 6 months 40° C./75% RH): 0.10%
- Assay (HPLC, % w/w, as-is) ([2]; Initial): 98.5%
- Chiral purity (HPLC area %) ([2]; Initial): 99.8%
- Color and apperance ([2]; Initial): white to off-
- Identity by XRPD ([2]; Initial): conforms to
- Purity (HPLC area %) ([2]; Initial): 99.2%
- Water content (% w/w) ([2]; Initial): 0.08%
- physical stability as a bulk powder ([2]; at least 6 month after storage at 25° C. and at 40° C.): physically stable
- Kp at 24 h [3]: 0.6 ± 0.2
- half-life ([3]; whole blood, blood): 5.7 h
- AUC(0-t) ([3]; whole blood, blood): 14400 ng·h/mL
- Cmax ([3]; whole blood, blood): 1210 ng/mL
- concentration at 24 h [3]: 175 ng/g

SMILES: [2H]C([2H])([2H])c1nc(N(C)C(=O)Cc2ccc(-c3cc(F)ccc3F)cc2)sc1[S@@](C)(=N)=O [d3-IM-250 HCl salt]
- Kp at 24 h [3]: 0.49 ± 0.1
- AUC(0-t) ([3]; whole blood, blood): 28600 ng·h/mL
- Cmax ([3]; whole blood, blood): 2570 ng/mL
- concentration at 24 h [3]: 568 ng/g

SMILES: Cc1nc(N(C)C(=O)Cc2ccc(-c3cc(F)ccc3F)cc2)sc1[S@@](C)(=N)=O [IM-250 Napadisylate]
- AUC0-24 h [1]: 48241 ng·h/mL

SMILES: Cc1nc(N(C)C(=O)Cc2ccc(-c3cc(F)ccc3F)cc2)sc1[S@@](C)(=N)=O [IM-250 Free base Form I, (S)-2-(2′,5′-Difluoro-[1,1′-biphenyl]-4-yl)-N-methyl-N-(4-methyl-5-(S-methylsulfon-imidoyl)thiazol-2-yl)acetamide]
- AUC0-24 h [1]: 7683 ng·h/mL
- % of unchanged compound left ([4]; 40° C./75% RH, 2 wk): 99.4%
- % of unchanged compound left ([4]; 40° C./75% RH, 4 wk): 100.2%
- % of unchanged compound left ([4]; 60° C., 2 wk): 99.6%
- % of unchanged compound left ([4]; 60° C., 4 wk): 101.4%
- chemical stability as a bulk powder [4, 6]: chemically stable
- DSC Enthalpy transition ([5]; 40° C./75% RH, 2 wk): -77 J/g
- DSC melting endotherm Temperature Onset ([5]; 40° C./75% RH, 2 wk): 163 °C
- DSC melting endotherm Temperature Peak ([5]; 40° C./75% RH, 2 wk): 165 °C
- DSC Enthalpy transition ([5]; 40° C./75% RH, 4 wk): -80 J/g
- DSC melting endotherm Temperature Onset ([5]; 40° C./75% RH, 4 wk): 163 °C
- DSC melting endotherm Temperature Peak ([5]; 40° C./75% RH, 4 wk): 165 °C
- DSC Enthalpy transition ([5]; 60° C., 2 wk): -85 J/g
- DSC melting endotherm Temperature Onset ([5]; 60° C., 2 wk): 163 °C
- DSC melting endotherm Temperature Peak ([5]; 60° C., 2 wk): 164 °C
- DSC Enthalpy transition ([5]; 60° C., 4 wk): -80 J/g
- DSC melting endotherm Temperature Onset ([5]; 60° C., 4 wk): 163 °C
- DSC melting endotherm Temperature Peak ([5]; 60° C., 4 wk): 165 °C
- physical stability as a bulk powder [5, 6]: physically stable
- DSC Enthalpy transition ([5]; no stress, initial analysis): -83 J/g
- DSC melting endotherm Temperature Onset ([5]; no stress, initial analysis): 163 °C
- DSC melting endotherm Temperature Peak ([5]; no stress, initial analysis): 164 °C

SMILES: Cc1nc(N(C)C(=O)Cc2ccc(-c3cc(F)ccc3F)cc2)sc1[S@@](C)(=N)=O [suspended IM-250 from DMSO, (S)-2-(2′,5′-Difluoro-[1,1′-biphenyl]-4-yl)-N-methyl-N-(4-methyl-5-(S-methylsulfon-imidoyl)thiazol-2-yl)acetamide]
- AUC0-24 h [1]: 66406 ng·h/mL
